Reference: patent EP4311830A1 (King Faisal Specialist Hospital & Research Centre, priority 2022, dated 2024)

How the values were obtained:
Type in all cases: cell-based
HCT-116 = assay: Cytotoxicity assay (WST1); settings: Colon, HCT-116, WST1
Protocol: (§1) 5,000 cells/well were seeded in 96-well plates with appropriate culture media. After cells treatment, WST-1 reagent (Sigma-Aldrich) was added to each well according to the manufacturer's instructions. These experiments were performed in triplicates and were repeated several times.

OV-2774 = assay: Cytotoxicity assay (WST1); settings: Ovarian, OV-2774, WST1
Protocol: as §1

CSC (MG-64) = assay: WST1 cytotoxicity on pre-formed tumorspheres (cancer stem cells); settings: cisplatin 50 µM for 24 h, MG-64 tumorspheres
Protocol: (§2) It is well known that cancer stem cells are the most resistant type of cells, which are responsible for recurrence and metastasis (Garcia-Mayea et al., 2020). Therefore, we decided to investigate the effect of eugenoplatin on the self-renewal ability and sternness capacity of cancer cells. To this end, cancer cells were first either sham-treated (DMSO) or challenged with eugenoplatin (3 µM) for 24 h, and then were incubated in 96 well ultra-low attachment plates in the presence of stem cells culture medium. After 10 days, the formed spheroids with a dimeter ≥ 100 µm were counted (Fig. 6A).
as §1
(§3) Cells were seeded in 96 well ultra-low attachment plate at a density of 1000 viable cells/well. Cells were cultured in 171 medium supplemented with 1% ABM, 2% B-27, 20 ng/mL EGF, 500 ng/ml HC, 4% FBS and 5 µg/ml insulin. Cells were incubated for 10 days at 37°C under 5% CO2. Mammospheres with a diameter of ≥100 µm were counted using OPTIKA light microscope.

CSC (MDA-MB-231) = assay: as above; settings: cisplatin 50 µM for 24 h, MDA-MB-231 tumorspheres
Protocol: as §2, §1, §3

H-1937 = assay: Cytotoxicity assay (WST1); settings: Lung, H-1937, WST1
Protocol: as §1

Cal62 = assay: Cytotoxicity assay (WST1); settings: Thyroid
Protocol: as §1

MG-64 = assay: Cytotoxicity assay (WST1); settings: Osteosarcoma, MG-64, WST1
Protocol: as §1

A1235 = assay: Cytotoxicity assay (WST1); settings: Glioblastoma
Protocol: as §1

[1] = tested on: human fibroblast cells (HFSN1); assay: γ-H2AX immunofluorescence (DNA damage); settings: cisplatin 50 µM for 24 h
Protocol: Since cisplatin is a DNA damaging chemotherapeutic drug, we investigated whether eugenoplatin can also promote DNA damage in cells. […] To confirm this, we assessed the level of the phosphorylated form of p53 (P.p53) in eugenoplatin-treated cells. […] This was accompanied by a late increase in the level of the p53 target p21 (Fig. 7B).
HFSN1 cells were fixed in formaldehyde (4%) for 19 minutes and blocked with Goat serum (5%), triton X (0.3%) and 1% sodium azide (5%) for 1 hour. The slides were then stained overnight at 4 °C with γ-H2AX antibody (pSer139) (Novusibio) that diluted in BSA (1%), triton X (0.3%) and 1 % sodium azide (5%), and subsequently incubated with alexa flour 594-conjugated goat anti-rabbit IgG and DAPI for 1 hour. Images were acquired using fluorescence microscope (Zeiss).

SMILES: O=C(O)C(=O)O.[NH-][C@@H]1CCCC[C@H]1[NH-].[Pt+2] [Oxaliplatin]
- IC50 (HCT-116): 3.17 ± 0.52 µM

SMILES: N.N.O=C([O-])C1(C(=O)[O-])CCC1.[Pt+2] [Carboplatin]
- IC50 (OV-2774): 53.3 ± 0.67 µM

SMILES: N.N.[Cl][Pt][Cl] [Cisplatin, (SP-4-2)-diamminedichloridoplatinum(II)]
- proportion of survival CSC (CSC (MG-64)): not affected
- proportion of survival CSC (CSC (MDA-MB-231)): not affected
- IC50 (H-1937): 67.8 ± 7.75 µM
- IC50 (Cal62): 25.7 ± 2.19 µM
- IC50 (MG-64): 26 ± 4 µM
- IC50 (A1235): 55.8 ± 18.2 µM
- γ-H2AX immunostaining [1]: strong nuclear staining
